This assay addresses T1, MAGL (Homo sapiens, UniProt Q99685).
T1 sequence (Q99685 1-303): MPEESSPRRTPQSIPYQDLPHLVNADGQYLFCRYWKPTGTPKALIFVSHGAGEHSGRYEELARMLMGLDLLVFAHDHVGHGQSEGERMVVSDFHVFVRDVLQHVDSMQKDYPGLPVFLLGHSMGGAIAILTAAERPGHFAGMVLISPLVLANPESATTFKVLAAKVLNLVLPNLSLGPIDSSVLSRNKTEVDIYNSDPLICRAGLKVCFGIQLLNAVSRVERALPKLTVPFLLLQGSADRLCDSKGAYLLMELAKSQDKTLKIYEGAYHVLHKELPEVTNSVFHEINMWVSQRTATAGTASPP
Put plainly: 2-AG assay (MAGL inhibitory activity; hydrolysis of 2-arachidonoylglycerol to arachidonic acid followed by mass spectrometry). Type of assay: biochemical. Conditions: 8 μM 2-arachidonoylglycerol, 15 min pre-incubation, 30 min incubation at rt, RapidFire MS read-out. As for the experimental part: Compounds were profiled for MAGL inhibitory activity by determining the enzymatic activity by following the hydrolysis of the natural substrate 2-arachidonoylglycerol resulting in arachidonic acid, which can be followed by mass spectrometry. This assay is hereinafter abbreviated “2-AG assay”.
A C18 SPE cartridge (G9205A) was used in an ACN/water liquid setup. […] The activity of the compounds was calculated based on the ratio of intensities [arachidonic acid/d8-arachidonic acid].

One may read the IC50 as the concentration at which inhibition is half-maximal.

Consider `O=C(N1CC(OCc2ccc(C(F)(F)F)cc2F)C1)N1CC[C@H]2OCCN[C@@H]2C1` (racemic) [Example 31, [3-[[2-Fluoro-4-(trifluoromethyl)phenyl]methoxy]azetidin-1-yl]-[rac-(4aR,8aR)-2,3,4,4a,5,7,8,8a-octahydropyrido[4,3-b][1,4]oxazin-6-yl]methanone], for which the half-maximal inhibitory concentration (IC50) amounted to 2010 nM.

In the case of `CC(C)(C)c1ccc(C2CN(C(=O)N3CCC4OCC(=O)NC4C3)C2)cc1` (single isomer, unassigned) [Example 1, (+)- or (−)-trans-6-[3-(4-tert-Butylphenyl)azetidine-1-carbonyl]-4,4a,5,7,8,8a-hexahydropyrido[4,3-b][1,4]oxazin-3-one], the IC50 amounted to 235 nM.

For the molecule `CC(C)(C)c1ccc(C2CN(C(=O)N3CCC4OCC(=O)NC4C3)C2)cc1` (single isomer, unassigned) [Example 2, (−)- or (+)-trans-6-[3-(4-tert-Butylphenyl)azetidine-1-carbonyl]-4,4a,5,7,8,8a-hexahydropyrido[4,3-b][1,4]oxazin-3-one], the IC50 was 39 nM.

As to `O=C1COC2CCN(C(=O)N3CC(c4ccc(C5(C(F)(F)F)CC5)cc4)C3)CC2N1` (single isomer, unassigned) [Example 3, (+)- or (−)-trans-6-[3-[4-[1-(Trifluoromethyl)cyclopropyl]phenyl]azetidine-1-carbonyl]-4,4a,5,7,8,8a-hexahydropyrido[4,3-b][1,4]oxazin-3-one], the IC50 stood at 95 nM.

For the molecule `O=C1COC2CCN(C(=O)N3CC(c4ccc(C5(C(F)(F)F)CC5)cc4)C3)CC2N1` (single isomer, unassigned) [Example 4, (−)- or (+)-trans-6-[3-[4-[1-(Trifluoromethyl)cyclopropyl]phenyl]azetidine-1-carbonyl]-4,4a,5,7,8,8a-hexahydropyrido[4,3-b][1,4]oxazin-3-one], the IC50 worked out at 15 nM.

On to `O=C1COC2CCN(C(=O)N3CC(OCc4ccc(C(F)(F)F)cc4F)C3)CC2N1` (single isomer, unassigned) [Example 5, (+)- or (−)-trans-6-[3-[[2-Fluoro-4-(trifluoromethyl)phenyl]methoxy]azetidine-1-carbonyl]-4,4a,5,7,8,8a-hexahydropyrido[4,3-b][1,4]oxazin-3-one], for which the IC50 stood at 327 nM.

With `O=C1COC2CCN(C(=O)N3CC(OCc4ccc(C(F)(F)F)cc4F)C3)CC2N1` (single isomer, unassigned) [Example 6, (−)- or (+)-trans-6-[3-[[2-Fluoro-4-(trifluoromethyl)phenyl]methoxy]azetidine-1-carbonyl]-4,4a,5,7,8,8a-hexahydropyrido[4,3-b][1,4]oxazin-3-one], the IC50 was 143 nM.

Turning to `O=C1CO[C@@H]2CCN(C(=O)N3CC(c4ccc(OC(F)(F)F)c(Cl)c4)C3)C[C@H]2N1` (single isomer, unassigned) [Example 7, (+)- or (−)-trans-6-[3-[3-Chloro-4-(trifluoromethoxy)phenyl]azetidine-1-carbonyl]-4,4a,5,7,8,8a-hexahydropyrido[4,3-b][1,4]oxazin-3-one], the IC50 was determined as 424 nM.

With `O=C1CO[C@H]2CCN(C(=O)N3CC(c4ccc(OC(F)(F)F)c(Cl)c4)C3)C[C@@H]2N1` (single isomer, unassigned) [Example 8, (−)- or (+)-trans-6-[3-[3-Chloro-4-(trifluoromethoxy)phenyl]azetidine-1-carbonyl]-4,4a,5,7,8,8a-hexahydropyrido[4,3-b][1,4]oxazin-3-one], the IC50 came out at 56 nM.

With `O=C1CO[C@@H]2CCN(C(=O)N3CC(c4ccc(Oc5ccccc5)cc4)C3)C[C@H]2N1` (single isomer, unassigned) [Example 11, (+)- or (−)-trans-6-[3-(4-Phenoxyphenyl)azetidine-1-carbonyl]-4,4a,5,7,8,8a-hexahydropyrido[4,3-b][1,4]oxazin-3-one], the IC50 was determined as 47 nM.

Regarding `O=C1CO[C@H]2CCN(C(=O)N3CC(c4ccc(Oc5ccccc5)cc4)C3)C[C@@H]2N1` (single isomer, unassigned) [Example 12, (−)- or (+)-trans-6-[3-(4-Phenoxyphenyl)azetidine-1-carbonyl]-4,4a,5,7,8,8a-hexahydropyrido[4,3-b][1,4]oxazin-3-one], the IC50 was 7 nM.

`O=C1CO[C@@H]2CCN(C(=O)N3CC(c4ccc(-c5ccc(F)cc5F)cc4)C3)C[C@H]2N1` (single isomer, unassigned) [Example 13, (+)- or (−)-trans-6-[3-[4-(2,4-Difluorophenyl)phenyl]azetidine-1-carbonyl]-4,4a,5,7,8,8a-hexahydropyrido[4,3-b][1,4]oxazin-3-one]: the IC50 was 93 nM.

In the case of `O=C1CO[C@H]2CCN(C(=O)N3CC(c4ccc(-c5ccc(F)cc5F)cc4)C3)C[C@@H]2N1` (single isomer, unassigned) [Example 14, (−)- or (+)-trans-6-[3-[4-(2,4-Difluorophenyl)phenyl]azetidine-1-carbonyl]-4,4a,5,7,8,8a-hexahydropyrido[4,3-b][1,4]oxazin-3-one], the IC50 is 28 nM.

On to `O=C1CO[C@@H]2CCN(C(=O)N3CC(c4ccc(CC(F)(F)F)cc4)C3)C[C@H]2N1` (single isomer, unassigned) [Example 15, (+)- or (−)-trans-6-[3-[4-(2,2,2-Trifluoroethyl)phenyl]azetidine-1-carbonyl]-4,4a,5,7,8,8a-hexahydropyrido[4,3-b][1,4]oxazin-3-one], for which the IC50 was found to be 357 nM.

For `O=C1CO[C@H]2CCN(C(=O)N3CC(c4ccc(CC(F)(F)F)cc4)C3)C[C@@H]2N1` (single isomer, unassigned) [Example 16, (−)- or (+)-trans-6-[3-[4-(2,2,2-Trifluoroethyl)phenyl]azetidine-1-carbonyl]-4,4a,5,7,8,8a-hexahydropyrido[4,3-b][1,4]oxazin-3-one], the IC50 was 58 nM.

As to `O=C1CO[C@@H]2CCN(C(=O)N3CC4(CC(Cc5ccc(F)cc5F)C4)C3)C[C@H]2N1` (single isomer, unassigned) [Example 17, (+)- or (−)-trans-6-[6-[(2,4-Difluorophenyl)methyl]-2-azaspiro[3.3]heptane-2-carbonyl]-4,4a,5,7,8,8a-hexahydropyrido[4,3-b][1,4]oxazin-3-one], the IC50 was 24 nM.

Take `O=C1CO[C@H]2CCN(C(=O)N3CC4(CC(Cc5ccc(F)cc5F)C4)C3)C[C@@H]2N1` (single isomer, unassigned) [Example 18, (−)- or (+)-trans-6-[6-[(2,4-Difluorophenyl)methyl]-2-azaspiro[3.3]heptane-2-carbonyl]-4,4a,5,7,8,8a-hexahydropyrido[4,3-b][1,4]oxazin-3-one]: the IC50 turned out to be 12 nM.

`O=C1CO[C@H]2CCN(C(=O)N3CC(c4ccc(Oc5ccccc5Cl)nc4)C3)C[C@@H]2N1` (single isomer, unassigned) [Example 19, (−)- or (+)-trans-6-[3-[6-(2-Chlorophenoxy)-3-pyridyl]azetidine-1-carbonyl]-4,4a,5,7,8,8a-hexahydropyrido[4,3-b][1,4]oxazin-3-one]: the IC50 is 32 nM.

As for `O=C1CO[C@@H]2CCN(C(=O)N3CC(OCc4ccc(C(F)(F)F)cc4Cl)C3)C[C@H]2N1` (single isomer, unassigned) [Example 20, (+)- or (−)-trans-6-[3-[[2-Chloro-4-(trifluoromethyl)phenyl]methoxy]azetidine-1-carbonyl]-4,4a,5,7,8,8a-hexahydropyrido[4,3-b][1,4]oxazin-3-one], the IC50 was 220 nM.

On to `O=C1CO[C@H]2CCN(C(=O)N3CC(OCc4ccc(C(F)(F)F)cc4Cl)C3)C[C@@H]2N1` (single isomer, unassigned) [Example 21, (−)- or (+)-trans-6-[3-[[2-Chloro-4-(trifluoromethyl)phenyl]methoxy]azetidine-1-carbonyl]-4,4a,5,7,8,8a-hexahydropyrido[4,3-b][1,4]oxazin-3-one], for which the IC50 came to 78 nM.

With `O=C1CO[C@@H]2CCN(C(=O)N3CC(OCc4ccc(OC(F)(F)F)cc4)C3)C[C@H]2N1` (single isomer, unassigned) [Example 22, (+)- or (−)-trans-6-[3-[[4-(Trifluoromethoxy)phenyl]methoxy]azetidine-1-carbonyl]-4,4a,5,7,8,8a-hexahydropyrido[4,3-b][1,4]oxazin-3-one], the IC50 came out at 920 nM.

For `O=C1CO[C@H]2CCN(C(=O)N3CC(OCc4ccc(OC(F)(F)F)cc4)C3)C[C@@H]2N1` (single isomer, unassigned) [Example 23, (−)- or (+)-trans-6-[3-[[4-(Trifluoromethoxy)phenyl]methoxy]azetidine-1-carbonyl]-4,4a,5,7,8,8a-hexahydropyrido[4,3-b][1,4]oxazin-3-one], the IC50 came out at 411 nM.

`O=C1CO[C@@H]2CCN(C(=O)N3CCC(C(c4ccc(F)cc4)c4ccc(F)cc4)CC3)C[C@H]2N1` (single isomer, unassigned) [Example 24, (+)- or (−)-trans-6-[4-[Bis(4-fluorophenyl)methyl]piperidine-1-carbonyl]-4,4a,5,7,8,8a-hexahydropyrido[4,3-b][1,4]oxazin-3-one]: the IC50 came out at 208 nM.

(Values after patent US20220106328A1, “HETEROCYCLIC COMPOUNDS” (Hoffmann-La Roche Inc., priority 2019, published 2022).)
